Reference: US20160022751A1, “NOVEL COMPOSITION FOR TREATING ALZHEIMER'S DISEASE AND IMPROVING COGNITIVE FUNCTION OF ALZHEIMER'S PATIENTS” (GANGNEUNG-WONJU NATIONAL UNIVERSITY INDUSTRY ACADEMY …, priority 2014, published 2016)

How the values were obtained:
[1] = HPLC analysis of ginsenosides transported into the brain after oral administration; assay type: in vivo, BALB/c mice; conditions: mice, oral mixture of Rb1, Re, Rd, Rg1, Rg3 10 mg/kg each, brain taken after six hours, HPLC (FIG. 22)
Method: Thus, the present inventor performed an HPLC analysis on brain tissue extract obtained from experimental animals administrated with mixture of five ginsenosides (Rb1, Rd, Re, Rg1 and Rg3) which are contained in RgC, in order to investigate whether RgC or ginsenosides Rd, Re and Rg3 can pass through the BBB. For the HPLC analysis of ginsenosides transported into the brain, a mixture of Rb1, Re, Rd, Rg1, and Rg3 (10 mg/kg each) was administered to ten-week-old male BALB/c mice (Central Lab. Animals, Korea). Brain tissues were isolated six hours after the oral administration of the ginsenosides after the complete perfusion with 0.9% saline solution, mechanically disrupted using a TissueLyser (Qiagen, Crawley, U.K.), and centrifuged for 10 min at 13500 rpm. The supernatant (1 mL) was then mixed with n-butanol (0.4 mL) and the butanol layer was completely evaporated and dried for HPLC analysis. The chromatography was performed by the Agilent 1100 series HPLC system (Agilent Technologies, USA) equipped with a vacuum degasser, quaternary pump, and ultraviolet (UV) detector. Chromatographic separation was performed on a Zorbax SB-Aq C18 column (4.6150 mm, 5 μm) and a mixture of solvent A (water) and solvent B (acetonitrile) flowed at a rate of 1 mL/min. The gradient elution program was initiated with 79% solvent A and 21% solvent B, 0-10 min (21-22% B), 10-11 min (22-23% B), 11-29 min (23-24% B), 29-34 min (24-30% B), 34-44 min (30-32% B), 44-49 min (32-50% B), 49-64 min (50-65% B), 64-78 min (65-100% B), and equilibrated with the initial gradient program (21% B) for 10 min prior to the next injection. The column temperature was set at 35° C., the volume of the sample injection was 10 μL, and detection wavelength was set at 203 nm. The animal experiments were approved by the Gangneung-Wonju National University Animal Care and Use Committee (Approval Number: GWNU-2013-23), and all procedures were conducted in accordance with the Guide for Care and Use of Laboratory Animals published by the National Institute of Health.

VAChT = VAChT mRNA expression in N2a cells (RT-PCR); assay type: cell-based, mouse; conditions: for expression of VAChT mRNA: single ginsenoside (FIG. 7B); for expression of VAChT, dose dependence: various concentrations (FIG. 7D)
Excerpt: (§1) The present inventor reported that ChAT overexpressing human neural stem cells restored cognition with an increase of ACh levels in rat model (Park et al., Exp. Neurol., 234: 521-526, 2012). This implies that the increase of the ChAT level in cholinergic neurons plays a critical role in cognition enhancement and thus the cholinergic gene locus “VAChT/ChAT” can be a putative target for therapeutic approaches on AD. Thus the present inventor prepared transfected Neuro-2a (N2a) cells that over-express the human ChAT and APP (designated as “N2a.hChAT” and “N2a.hAPPswe”, respectively, FIG. 6) and the N2a.hChAT and N2a.hAPPswe cells were treated with the faction groups 1 to 5 isolated in the Example 3 at a centration of 50 μg/ml. Neuro-2a mouse neuroblastoma cells (Korean Cell Line Bank, Korea) were grown in DMEM supplemented with 10% fetal bovine serum (FBS), 100 U/m penicillin, and 100 μg/ml streptomycin (Invitrogen, USA) under 5% CO2 at 37° C. in tissue culture flasks. For all experiments, cells were grown to greater than 90% confluency and subjected to no more than 20 cell passages. The medium was changed every 2-3 days. Subconfluent cells were harvested and seeded at a density of 5×10^5 cells or 5×10^6 cells in poly-L-lysine-coated 35 mm or 60 mm culture plates. To recover the cells that are not completely saturated for analysis, poly-L-lysine coated 35 mm or 60 mm culture was seeded at a concentration of 5×10^5 or 5×10^6 cells on the plates. The extent of expression of hChAT and APP in the N2a.hChAT and N2a.hAAPswe cells treated with the faction groups 1 to 5 was quantified with RT-PCR using primers described in the below Table 2. At this time, beta-actin was used as an internal control.
(§2) Specifically, total RNA extracts from N2a cells were prepared using the Trizol method (Invitrogen, USA) and cDNA was synthesized from RNA by reverse transcription of 1 μg of total RNA using a reverse transcription system (Improm-II, Promega, USA) and oligo dT primers in a total volume of 20 μL. PCR amplification was performed using the primers described in Table 2 (Bioneer, Korea). Quantitative real-time PCR reactions were run on a Rotor-Gene 6000 (Corbett Research, Australia) using SensiMix™ SYBR Hi-ROX Kit (Bioline, U.K.) in 20 μL reaction mixtures. Each real-time-PCR master mix contained 10 μL 2× enzyme master mix, 7.0 μL RNase free water, 1 μL of each primer (10 pM each), and 1 μL diluted template. The PCR was performed with an initial pre-incubation step for 15 min at 95° C., followed by 45 cycles of 95° C. for 15 s, annealing at 52° C. for 15 s, and extension at 72° C. for 10 s. Melting curve analysis was used to confirm formation of the expected PCR product, and products from all assays were additionally tested with 1.2% agarose gel electrophoresis to confirm the correct lengths. An inter-run calibrator was used, and a standard curve was created for each gene to obtain PCR efficiencies. Relative sample expression levels were calculated using Rotor-Gene 6000 Series Software 1.7, and were expressed relative to β-actin and corrected for between-run variability. Data for the experimental samples were expressed as a fold unit the internal control gene.
(§3) In order to examine whether five ginsenosides affect the expression of ChAT related to the synthesis of acetylcholine and VAChT controlling extracellular secretion of acetylcholine, the present inventor analyzed the expression level of ChAT and VAChT after treating the five ginsenosides to N2a […] cells, respectively.

ChAT = ChAT mRNA expression in N2a cells (RT-PCR); assay type: cell-based, mouse; conditions: for expression of ChAT mRNA: single ginsenoside (FIG. 7A); for expression of ChAT, dose dependence: various concentrations (FIG. 7C)
Excerpt: as §1, §2, §3

## CC(C)=CCC[C@](C)(O[C@@H]1O[C@H](CO)[C@@H](O)[C@H](O)[C@H]1O)[C@H]1CC[C@]2(C)[C@@H]1[C@H](O)C[C@@H]1[C@@]3(C)CC[C@H](O[C@@H]4O[C@H](CO)[C@@H](O)[C@H](O)[C@H]4O[C@@H]4O[C@H](CO)[C@@H](O)[C@H](O)[C@H]4O)C(C)(C)[C@@H]3CC[C@]12C [ginsenoside Rd]
[1]
  penetration into the brain (passage through BBB): penetrated into the brain
VAChT
  expression of VAChT mRNA: significantly increased
  expression of VAChT, dose dependence: increased expression of ChAT and VAChT in a dose-dependent manner
ChAT
  expression of ChAT mRNA: significantly increased
  expression of ChAT, dose dependence: increased expression of ChAT and VAChT in a dose-dependent manner

## CC(C)=CCC[C@](C)(O[C@@H]1O[C@H](CO)[C@@H](O)[C@H](O)[C@H]1O)[C@H]1CC[C@]2(C)[C@@H]1[C@H](O)C[C@@H]1[C@@]3(C)CC[C@H](O)C(C)(C)[C@@H]3[C@@H](O[C@@H]3O[C@H](CO)[C@@H](O)[C@H](O)[C@H]3O[C@@H]3O[C@@H](C)[C@H](O)[C@@H](O)[C@H]3O)C[C@]12C [ginsenoside Re]
[1]
  penetration into the brain (passage through BBB): penetrated into the brain
VAChT
  expression of VAChT mRNA: significantly increased
  expression of VAChT, dose dependence: increased expression of ChAT and VAChT in a dose-dependent manner
ChAT
  expression of ChAT mRNA: significantly increased
  expression of ChAT, dose dependence: increased expression of ChAT and VAChT in a dose-dependent manner

## CC(C)=CCC[C@](C)(O)[C@H]1CC[C@]2(C)[C@@H]1[C@H](O)C[C@@H]1[C@@]3(C)CC[C@H](O[C@@H]4O[C@H](CO)[C@@H](O)[C@H](O)[C@H]4O[C@@H]4O[C@H](CO)[C@@H](O)[C@H](O)[C@H]4O)C(C)(C)[C@@H]3CC[C@]12C [ginsenoside Rg3]
[1]
  penetration into the brain (passage through BBB): penetrated into the brain
VAChT
  expression of VAChT mRNA: no significant increase
ChAT
  expression of ChAT mRNA: no significant increase
